How the values were obtained:
[1] = test system: Aspergillus saccharolyticus (strain AP, CBS 127449) beta-glucosidases, crude enzyme extract; assay: Glucose tolerance / product inhibition, crude extract of strain AP; format: biochemical
Method: The fungal strain AP/Aspergillus saccharolyticus was grown on potato dextrose agar (Sigma) for sporulation. Spores were harvested after 7 days of growth by adding sterile water to the plate and scrape on the surface of the culture. The heavy spore suspension was filtered through Myra cloth. Two ml of the spore solution was inoculated into 200 ml seed medium (2.0 g/l wheat bran, 5 g/l corn steep powder, 0.25 g/l yeast extract, 0.75 g/l peptone, 1.4 g/l (NH4)2SO4, 2.0 g/l KH2PO4, 0.4 g/l CaCl2 2H2O, 0.3 g/l MgSO4H2O, 5.0 mg/l FeSO4, 1.6 mg/l MnSO4 7H2O, 1.4 mg/l ZnSO4 7H2O, 2.0 CoCl2 6H2O) in an 500 ml Erlenmeyer flask, and incubated at 30° C. for 2 days, shaking at 160 rpm. Solid state fermentation at approximately 30% TS was carried out adding 100 ml of the cultivated seed medium to 1 l of a solid state fermentation medium comprising of 343 g wheat bran (TS of 87.4%), 9 g corn steep powder, 557 ml Czapek liquid (3 g/l NaNO3, 1 g/l K2HPO4, 0.5 g/l KCl, 0.5 g/l MgSO4 7H2O, 0.01 g/l FeSO4 7H2O) (Samson et al., 2004a). […] The samples were incubated at 30° C. without shaking. After 7 days incubation, liquid was extracted from the medium by pressing the medium by hand using gloves. The extract was centrifuged at 10000 g, and the supernatant filtered through Whatman filter paper.
[…] The remaining activity (glucose tolerance) was measured spectrophotometrically by release of pNP at 50° C. reaction conditions, as described earlier. Triple determinations were performed. […] Triple determinations were performed.

[2] = test system: Novozym 188 beta-glucosidase (Aspergillus niger), commercial preparation; assay: Glucose tolerance / product inhibition, Novozym 188; format: biochemical
Method: (§1) For testing glucose tolerance, 5 mM pNPG in NaCltrate buffer pH 4.8 was used as substrate with different glucose amounts added, ranging final glucose concentrations of 0-280 mM. The remaining activity (glucose tolerance) was measured spectrophotometrically by release of pNP at 50° C. reaction conditions, as described earlier. Triple determinations were performed. […] Triple determinations were performed.

[3] = test system: Cellic CTec beta-glucosidases, commercial preparation; assay: Glucose tolerance / product inhibition, Cellic CTec; format: biochemical
Method: as §1

[4] = biological target: T1, Aspergillus saccharolyticus CBS 127449 beta-glucosidase BGL1, his-tagged, expressed in T. reesei, SEQ ID NO: 3 (without signal peptide SEQ ID NO: 4) (Aspergillus saccharolyticus, UniProt G0X2F9); assay: Glucose inhibition, purified BGL1; format: biochemical; conditions: pNPG as substrate (5 mM), 50° C., pH 4.8
T1 construct: mature form lacks signal peptide 1-19
T1 sequence (G0X2F9 20-860): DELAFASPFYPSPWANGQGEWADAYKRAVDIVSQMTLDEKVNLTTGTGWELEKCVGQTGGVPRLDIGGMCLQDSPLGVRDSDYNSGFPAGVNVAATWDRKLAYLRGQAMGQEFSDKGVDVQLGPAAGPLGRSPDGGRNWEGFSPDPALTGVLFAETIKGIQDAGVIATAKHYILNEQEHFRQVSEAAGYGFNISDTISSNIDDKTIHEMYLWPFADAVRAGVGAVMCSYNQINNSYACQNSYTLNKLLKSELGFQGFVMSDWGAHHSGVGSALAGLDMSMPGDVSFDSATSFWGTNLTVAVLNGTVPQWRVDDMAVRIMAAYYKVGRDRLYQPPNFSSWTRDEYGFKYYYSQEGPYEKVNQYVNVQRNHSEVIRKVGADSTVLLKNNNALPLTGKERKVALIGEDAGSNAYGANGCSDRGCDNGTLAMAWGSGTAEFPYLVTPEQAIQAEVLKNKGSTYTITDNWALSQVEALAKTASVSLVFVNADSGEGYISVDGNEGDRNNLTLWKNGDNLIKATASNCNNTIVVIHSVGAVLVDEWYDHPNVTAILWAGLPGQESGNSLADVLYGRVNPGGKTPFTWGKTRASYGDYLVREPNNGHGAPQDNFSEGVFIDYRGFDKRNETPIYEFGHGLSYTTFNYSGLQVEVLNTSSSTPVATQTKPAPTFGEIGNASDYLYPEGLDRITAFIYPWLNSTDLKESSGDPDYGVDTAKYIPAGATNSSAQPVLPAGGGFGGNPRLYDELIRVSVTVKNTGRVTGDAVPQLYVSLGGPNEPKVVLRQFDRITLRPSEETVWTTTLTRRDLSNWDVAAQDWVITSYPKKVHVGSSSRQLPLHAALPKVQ
Method: as §1
The his-tagged beta-glucosidases were purified on the ÄKTApurifier system with UNICORN software, using a HisTrap HP 5 ml […] column (GE Healthcare), run at a flow rate of 5 ml/min. The column was equilibrated with 5CV of binding buffer (20 mM sodium phosphate, 0.5M NaCl, pH 7.4), 100 ml sample was loaded onto the column, followed by washing with binding buffer till the absorbance reached the baseline. The his-tagged beta-glucosidases were eluted with 3CV elution buffer (20 mM sodium phosphate, 0.5M NaCl, 500 mM imidazole, pH 7.4) and the peak (1 CV) collected by monitoring the absorbance.
(§2) Michaelis Menten kinetics, glucose tolerance, termostability, pH optimum, and cellodextrin hydrolysis were carried out as described in EXAMPLE 1.

[5] = substrate: OC[C@H]1O[C@@H](O[C@H]2[C@H](O)[C@@H](O)C(O)O[C@@H]2CO)[C@H](O)[C@@H](O)[C@@H]1O; assay: purified protein, by the assay type; conditions: other: cellobiose as substrate, 50° C., pH 4.8, Hanes plot
[6] = Thermostability: remaining beta-glucosidase activity after incubation at different temperatures; format: physicochemical
Method: For testing the thermostability of the enzyme extract, aliquots of the extracts were incubated in PCR tubes in a thermocycler with temperature gradient option at 12 different temperatures from 48.5 to 67.0° C. for different time periods (0-4 hours) followed by assaying the activity at 50° C. with 5 mM pNPG in NaCltrate buffer pH 4.8 as substrate. The rate of denaturation, kD, was calculated as the slope of a semi-logaritmic plot of remaining activity vs incubation time. The half life was calculated as: T1/2=ln(2)/kD.
as §2

[7] = pH profile of beta-glucosidase activity on pNPG; format: biochemical; conditions: 50 C
Method: For testing the pH optimum of the enzyme extracts, they were assayed at 50° C. with 5 mM pNPG in Citrate Phosphate buffer at different pH ranging from 2.65 to 7.25. Endoglucanase activity of Celluclast 1.5 L was assayed with AZO-CMC as described by the manufacturer (Megazyme), but testing the same pH range 2.65-7.25 as for the pNPG assay.
as §2

[8] = Hydrolysis of cellodextrins (cellohexaose); format: biochemical; conditions: 50 C, pH 4.8, 30 min time course
Method: Hydrolysis of cellohexaose was carried out by mixing, in the ratio 1:1, 0.2 mM cellohexaose in 50 mM NaCltrate buffer pH 4.8 and enzyme diluted in 50 mM NaCltrate buffer pH 4.8 to a concentration of 3.7 μg/ml. The reaction was incubated at 50° C. and for a period of 30 min, 100 μl sample was placed on ice every 5 min. 100 μl 200 mM NaOH was added to terminate the reaction, and after another 1 fold dilution with 100 mM NaOH, the samples were analyzed at Dionex ICS3000 using gradient elution: 0-30% eluent B in 26 min followed by 2 min washing with 50% eluent B (0.5 M NaAcetate in 100 mM NaOH) and 5 min re-equilibrating with 100% eluent A (100 mM NaOH).
as §2

[9] = cellobiose as substrate, product and substrate in equal concentrations
[10] = cellobiose as substrate, twice the concentration of glucose compared to cellobiose
[11] = pNPG as substrate, product concentration 12 times higher than the substrate concentration

Molecule: OC[C@H]1OC(O)[C@H](O)[C@@H](O)[C@@H]1O (stereo partly drawn) [glucose]
- glucose concentration at half the maximum activity, relative to substrate concentration ([1]; 5 mM pNPG as substrate): 36 × the substrate concentration
- remaining activity with glucose [1, 9]: around 80%
- remaining activity with glucose [1, 10]: 50%
- remaining activity with glucose [1, 11]: > 80%
- glucose concentration at half the maximum activity, relative to substrate concentration ([2]; 5 mM pNPG as substrate): 12 × the substrate concentration
- IC50 ([2]; 5 mM pNPG as substrate, 50° C., pH 4.8, calculated, read-out: glucose concentration at half the maximum activity): 60 mM
- remaining activity with glucose [2, 9]: around 80%
- remaining activity with glucose [2, 10]: 50%
- remaining activity with glucose [2, 11]: below 40%
- glucose concentration at half the maximum activity, relative to substrate concentration ([3]; 5 mM pNPG as substrate): 23 × the substrate concentration
- remaining activity with glucose [3, 11]: approx 75%
- product (glucose) concentration at reduction in activity to 50% [4]: 30 times greater than the substrate concentration

B1: Aspergillus saccharolyticus CBS 127449 beta-glucosidase BGL1, his-tagged, expressed in T. reesei, SEQ ID NO: 3 (without signal peptide SEQ ID NO: 4) … (protein)
chain: DELAFASPFYPSPWANGQGEWADAYKRAVDIVSQMTLDEKVNLTTGTGWELEKCVGQTGGVPRLDIGGMCLQDSPLGVRDSDYNSGFPAGVNVAATWDRKLAYLRGQAMGQEFSDKGVDVQLGPAAGPLGRSPDGGRNWEGFSPDPALTGVLFAETIKGIQDAGVIATAKHYILNEQEHFRQVSEAAGYGFNISDTISSNIDDKTIHEMYLWPFADAVRAGVGAVMCSYNQINNSYACQNSYTLNKLLKSELGFQGFVMSDWGAHHSGVGSALAGLDMSMPGDVSFDSATSFWGTNLTVAVLNGTVPQWRVDDMAVRIMAAYYKVGRDRLYQPPNFSSWTRDEYGFKYYYSQEGPYEKVNQYVNVQRNHSEVIRKVGADSTVLLKNNNALPLTGKERKVALIGEDAGSNAYGANGCSDRGCDNGTLAMAWGSGTAEFPYLVTPEQAIQAEVLKNKGSTYTITDNWALSQVEALAKTASVSLVFVNADSGEGYISVDGNEGDRNNLTLWKNGDNLIKATASNCNNTIVVIHSVGAVLVDEWYDHPNVTAILWAGLPGQESGNSLADVLYGRVNPGGKTPFTWGKTRASYGDYLVREPNNGHGAPQDNFSEGVFIDYRGFDKRNETPIYEFGHGLSYTTFNYSGLQVEVLNTSSSTPVATQTKPAPTFGEIGNASDYLYPEGLDRITAFIYPWLNSTDLKESSGDPDYGVDTAKYIPAGATNSSAQPVLPAGGGFGGNPRLYDELIRVSVTVKNTGRVTGDAVPQLYVSLGGPNEPKVVLRQFDRITLRPSEETVWTTTLTRRDLSNWDVAAQDWVITSYPKKVHVGSSSRQLPLHAALPKVQ
- Km [5]: 1900 µM

B2: BGL1: GH family 3 beta-glucosidase of Aspergillus saccharolyticus; his-tagged, expressed in T. reesei and purified for characterisation (protein, listed as Aspergillus saccharolyticus)
chain: DELAFASPFYPSPWANGQGEWADAYKRAVDIVSQMTLDEKVNLTTGTGWELEKCVGQTGGVPRLDIGGMCLQDSPLGVRDSDYNSGFPAGVNVAATWDRKLAYLRGQAMGQEFSDKGVDVQLGPAAGPLGRSPDGGRNWEGFSPDPALTGVLFAETIKGIQDAGVIATAKHYILNEQEHFRQVSEAAGYGFNISDTISSNIDDKTIHEMYLWPFADAVRAGVGAVMCSYNQINNSYACQNSYTLNKLLKSELGFQGFVMSDWGAHHSGVGSALAGLDMSMPGDVSFDSATSFWGTNLTVAVLNGTVPQWRVDDMAVRIMAAYYKVGRDRLYQPPNFSSWTRDEYGFKYYYSQEGPYEKVNQYVNVQRNHSEVIRKVGADSTVLLKNNNALPLTGKERKVALIGEDAGSNAYGANGCSDRGCDNGTLAMAWGSGTAEFPYLVTPEQAIQAEVLKNKGSTYTITDNWALSQVEALAKTASVSLVFVNADSGEGYISVDGNEGDRNNLTLWKNGDNLIKATASNCNNTIVVIHSVGAVLVDEWYDHPNVTAILWAGLPGQESGNSLADVLYGRVNPGGKTPFTWGKTRASYGDYLVREPNNGHGAPQDNFSEGVFIDYRGFDKRNETPIYEFGHGLSYTTFNYSGLQVEVLNTSSSTPVATQTKPAPTFGEIGNASDYLYPEGLDRITAFIYPWLNSTDLKESSGDPDYGVDTAKYIPAGATNSSAQPVLPAGGGFGGNPRLYDELIRVSVTVKNTGRVTGDAVPQLYVSLGGPNEPKVVLRQFDRITLRPSEETVWTTTLTRRDLSNWDVAAQDWVITSYPKKVHVGSSSRQLPLHAALPKVQ
modifications: His tag
notes: GH family 3 beta-glucosidase of Aspergillus saccharolyticus; his-tagged, expressed in T. reesei and purified for characterisation
- activity retained after 2 hours of incubation ([6]; 60 C): more than 90%
- activity retained after 4 hours of incubation ([6]; 60 C): more than 70%
- activity retained after 2 hours of incubation ([6]; 67 C): approx. 10%
- stability at 50 C ([6]; purified BGL1): stable throughout the incubation period
- half-life ([6]; purified BGL1, from 62 C up to 65 C): less than 2.5 hours
- calculated half-life ([6]; purified BGL1, temperatures above 60 C): approximately 6 hours
- stability at temperatures up to 58 C ([6]; up to four hours of incubation): fairly stable
- activity at basic conditions [7]: below 10%
- activity within pH range 3.8-4.8 [7]: above 90 % of maximum
- pH optimum [7]: ~4.2 pH
- mode of action in hydrolysis of cellohexaose [8]: hydrolyzes the different cellodextrins through exohydrolase action
